Data: US7141569B2, “Antiviral pyrazolopyridine compounds” (SmithKline Beecham Corporation, priority 2001, dated 2006)

Tested on: HSV-1
Test: HSV-1 infection of Vero 76 cells, viral DNA detected by hybridization capture (chemiluminescence)
Type: cell-based
Conditions: Human alphaherpesvirus 1; HSV-1 in Vero 76 cells, MOI=0.001, compounds incubated 40–48 hours at 37° C.
Procedure: Vero 76 cells were maintained in MEM with Earle's salts, L-glutamine, 8% FBS (Hyclone, A-1111-L) and 100 units/mL Penicillin-100 μg/mL Streptomycin. For assay conditions, FBS was reduced to 2%. Cells are seeded into 96-well tissue culture plates at a density of 5×10^4 cells/well after being incubated for 45 min at 37° C. in the presence of HSV-1 or HSV-2 (MOI=0.001). Test compounds are added to the wells and the plates are incubated at 37° C. for 40–48 hours. Cell lysates are prepared as follows: media was removed and replaced with 150 μL/well 0.2 N NaOH with 1% Igepal CA 630 or NP-40. Plates were incubated up to 14 days at room temperature in a humidified chamber to prevent evaporation.
For the detection probe, a gel-purified, digoxigenin-labeled, 710-bp PCR fragment of the HSV UL-15 sequence was utilized. PCR conditions included 0.5 μM primers, 180 μM dTTP, 20 μM dUTP-digoxigenin (Boehringer Mannheim 1558706), 200 μM each of dATP, dCTP, and dGTP, 1×PCR Buffer II (Perkin Elmer), 2.5 mM MgCl2, 0.025 units/μL of AmpliTaq Gold polymerase (Perkin Elmer), and 5 ng of gel-purified HSV DNA per 100 μL Extension conditions were 10 min at 95° C., followed by 30 cycles of 95° C. for 1 min, 55° C. for 30 sec. and 72° C. for 2 min. The amplification was completed with a 10-min incubation at 72° C. Primers were selected to amplify a 728 bp probe spanning a section of the HSV1 UL15 open reading frame (nucleotides 249–977). Single-stranded transcripts were purified with Promega M13 Wizard kits. The final product was mixed 1:1 with a mixture of 6 M GuSCN, 100 mM EDTA and 200 μg/mL herring sperm DNA and stored at 4° C.
The capture DNA plasmid (HSV UL13 region in pUC) was linearized by cutting with Xba I, denatured for 15 min at 95° C. and diluted immediately into Reacti-Bind DNA Coating Solution (Pierce, 17250, diluted 1:1 with TE buffer, pH 8) at 1 ng/μL 75 μL/well were added to Corning (#3922 or 9690) white 96-well plates and incubated at room temperature for at least 4 hrs before washing twice with 300 μL/well 0.2×SSC/0.05% Tween-20 (SSC/T buffer). The plates were then incubated overnight at room temperature with 150 μL/well 0.2 N NaOH, 1% IGEPAL and 10 μg/mL herring sperm DNA.
Twenty-seven (27) μL of lysate was combined with 45 μL of hybridization solution (final concentration: 3M GuSCN, 50 mM EDTA, 100 μg/ml salmon sperm DNA, 5×Denhardt's solution, 0.25×APE, and 5 ng of the digoxigenin-labeled detection probe). APE is 1.5 M NH4-acetate, 0.15 M NH4H2 phosphate, and 5 mM EDTA adjusted to pH 6.0 Mineral oil (50 μL) was added to prevent evaporation. The hybridization plates were incubated at 95° C. for 10 minutes to denature the DNA, then incubated at 42° C. overnight. The wells were washed 6× with 300 μl/well SSC/T buffer then incubated with 75 μL/well anti-digoxigenin-HRP-conjugated antibody (Boehringer Mannheim 1207733, 1:5000 in TE) for 30 min at room temperature. The wells were washed 6× with 300 μL/well with PBS/0.05% Tween-20 before 75 μL/well SuperSignal LBA substrate (Pierce) was added. The plates were incubated at room temperature for 30 minutes and chemiluminescence was measured in a Wallac Victor reader.

Compound	IC50 [µM]
CC(C)Nc1ccn2nc(-c3ccc(F)cc3)c(-c3ccnc(NC4CCCC4)n3)c2c1 [Example 9, 3-[2-(Cyclopentylamino)-4-pyrimidinyl]-2-(4-fluorophenyl)-N-isopropylpyrazolo[1,5-α]pyridin-5-amine]	2.9
Nc1ccc2c(-c3ccnc(NC4CCCC4)n3)c(-c3ccc(F)cc3)nn2c1 [Example 5, 3-[2-(cyclopentylamino)-4-pyrimidinyl]-2-(4-fluorophenyl)pyrazolo[1,5-α]pyridin-6-amine]	0.24
CS(=O)(=O)Nc1ccn2nc(-c3ccc(F)cc3)c(-c3ccnc(NC4CCCC4)n3)c2c1 [Example 4, N-[3-[2-(Cyclopentylamino)-4-pyrimidinyl]-2-(4-fluorophenyl)pyrazolo[1,5-α]pyridin-5-yl]methanesulfonamide]	2
COc1ccc(-c2nn3ccc(NC4CCCC4)cc3c2-c2ccnc(NC3CCCC3)n2)cc1 [Example 10, N-Cyclopentyl-3-[2-(cyclopentylamino)-4-pyrimidinyl]-2-(4-methoxyphenyl)-pyrazolo[1,5-α]pyridin-5-amine]	0.2
Nc1ccn2nc(-c3ccc(F)cc3)c(-c3ccnc(NC4CCCC4)n3)c2c1 [Example 3, 3-[2-(Cyclopentylamino)-4-pyrimidinyl]2-(4-fluorophenyl)pyrazolo[1,5-α]pyridin-5-amine]	5
Fc1ccc(-c2nn3cc(NC4CCCC4)ccc3c2-c2ccnc(NC3CCCC3)n2)cc1 [Example 6, N-Cyclopentyl-3-[2-(cyclopentylamino)-4-pyrimidinyl]-2-(4-fluorophenyl)pyrazolo[1,5-α]pyridin-6-amine]	1
CC(C)COc1ccc(-c2nn3ccc(NC4CCCC4)cc3c2-c2ccnc(NC3CCCC3)n2)cc1 [Example 19, N-Cyclopentyl-3-[2-(cyclopentylamino)-4-pyrimidinyl]-2-(4-isobutoxyphenyl)pyrazolo[1,5-α]pyridin-5-amine]	0.5
COCCNc1ccn2nc(-c3ccc(F)cc3)c(-c3ccnc(NC4CCCC4)n3)c2c1 [Example 8, 3-[2-(Cyclopentylamino)-4-pyrimidinyl]-2-(4-fluorophenyl)-N-(2-methoxyethyl)pyrazolo[1,5-α]pyridin-5-amine]	1
Fc1ccc(-c2nn3ccc(NC4CCCC4)cc3c2-c2ccnc(NC3CCCC3)n2)cc1 [Example 2, N-Cyclopentyl-3-[2-(cyclopentylamino)-4-pyrimidinyl]-2-(4-fluorophenyl)pyrazolo[1,5-α]pyridin-5-amine]	0.5
CC(C)Nc1ccc2c(-c3ccnc(NC4CCCC4)n3)c(-c3ccc(F)cc3)nn2c1 [Example 7, 3-[2-(Cyclopentylamino)-4-pyrimidinyl]-2-(4-fluorophenyl)-N-isopropylpyrazolo[1,5-α]pyridin-6-amine]	1.2

Other lines, results leading:

IC50 [µM]	Compound
2.5	CCCCNc1cc(-c2c(-c3ccc(F)cc3)nn3cccc(NCCCC)c23)ccn1 [Example 17, N-Butyl-3-[2-(butylamino)pyridin-4-yl]-2-(4-fluorophenyl)pyrazolo[1,5-α]pyridin-4-amine]
0.3	c1cc(-c2c(-c3ccc(OCC4CC4)cc3)nn3ccc(NC4CCCC4)cc23)nc(NC2CCCC2)n1 [Example 20, N-Cyclopentyl-3-[2-(cyclopentylamino)-4-pyrimidinyl]-2-[4-(cyclopropylmethoxy)phenyl]pyrazolo[1,5-α]pyridin-5-amine]
0.8	COc1ccc(-c2nn3ccc(NC(C)C)cc3c2-c2ccnc(NC3CCCC3)n2)cc1 [Example 12, 3-[2-(Cyclopentylamino)-4-pyrimidinyl]-N-isopropyl-2-(4-methoxyphenyl)pyrazolo[1,5-α]pyridin-5-amine]
1.2	Oc1ccc(-c2nn3ccc(NC4CCCC4)cc3c2-c2ccnc(NC3CCCC3)n2)cc1 [Example 18, 4-{5-(Cyclopentylamino)-3-[2-(cyclopentylamino)-4-pyrimidinyl]pyrazolo[1,5-α]pyridin-2-yl}phenol]
1.9	Fc1ccc(-c2nn3ccc(NC4CCCC4)c(Cl)c3c2-c2ccnc(NC3CCCC3)n2)cc1 [Example 14, 4-Chloro-N-cyclopentyl-3-[2-(cyclopentylamino)pyrimidin-4-yl]-2-(4-fluorophenyl)pyrazolo[1,5-α]pyridin-5-amine]
3.5	COc1ccc(-c2nn3ccc(NC4CCCC4)c(Br)c3c2-c2ccnc(NC3CCCC3)n2)cc1 [Example 15, 4-Bromo-N-cyclopentyl-3-[2-(cyclopentylamino)pyrimidin-4-yl]-2-(4-methoxyphenyl)pyrazolo[1,5-α]pyridin-5-amine]
2.8	COc1ccc(-c2nn3ccc(NC4CCCC4)c(Cl)c3c2-c2ccnc(NC3CCCC3)n2)cc1 [Example 16, 4-Chloro-N-cyclopentyl-3-[2-(cyclopentylamino)pyrimidin-4-yl]-2-(4-methoxyphenyl)pyrazolo[1,5-α]pyridin-5-amine]
3	Fc1ccc(-c2nn3ccc(NC4CCCC4)c(Br)c3c2-c2ccnc(NC3CCCC3)n2)cc1 [Example 13, 4Bromo-N-cyclopentyl-3-[2-(cyclopentylamino)pyrimidin-4-yl]-2-(4-fluorophenyl)pyrazolo[1,5-α]pyridin-5-amine]
